The values that follow come from patent US5538876A, “Stabilization of carboxyl esterase” (Gist-brocades, N.V., priority 1989, dated 1996).

Assay [1] has as its target carboxyl esterase (Bacillus subtilis, UniProt Q59248). Put plainly: Inactivation of carboxyl esterase by compounds. It is filed as biochemical, Bacillus subtilis Thai 1-8. Particulars: reaction conditions, commercially interesting concentrations.
Experimental: The esterase as such is stable at pH=9 and T=40° C. (with and without Tween 80 (TM)) for several hours.
Assay [2] concerns the target T1, carboxyl esterase (Bacillus subtilis, UniProt Q59248).
T1 construct: document's preparation is from B. subtilis 1-85/pNAPT-7 (cloned Thai I-8 gene)
T1 sequence (Q59248 1-300): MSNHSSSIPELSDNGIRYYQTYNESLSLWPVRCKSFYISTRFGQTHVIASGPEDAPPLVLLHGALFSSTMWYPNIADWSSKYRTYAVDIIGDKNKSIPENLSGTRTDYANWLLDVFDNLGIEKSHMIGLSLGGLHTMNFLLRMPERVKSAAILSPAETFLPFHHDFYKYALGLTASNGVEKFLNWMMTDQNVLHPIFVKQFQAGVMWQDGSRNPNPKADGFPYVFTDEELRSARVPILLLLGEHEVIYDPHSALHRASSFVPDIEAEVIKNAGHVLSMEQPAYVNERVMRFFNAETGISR
The assay can be described thus: Effect of chemical modifier on carboxyl esterase stability. It is filed as biochemical. Particulars: used as chemical group to modify the enzyme.
Text: In this respect it is to be noticed that only small and not too hydrophilic chemical groups can be used to modify the enzyme.

`Oc1ccc2ccccc2c1` [2-naphthol]: on carboxyl esterase [1], the “inactivation of carboxyl esterase by the compound (in words)” value (shortened to “inactivation of carboxyl esterase”) is “inactivate the enzyme”. On the same count and under the same terms, as for `O=C(O)COc1ccc2ccccc2c1` [2-naphthoxy acetic acid], the entry is “inactivate the enzyme”. Take `O=Cc1ccccc1` [Benzaldehyde]: the “effect on enzyme stability (in words)” value at carboxyl esterase [2] was “does not have a positive effect on enzyme stability”. Take `CC(Oc1ccc(Oc2ccc(Cl)cc2Cl)cc1)C(=O)O` (stereo not drawn) [diclofop]: at carboxyl esterase [1], the “inactivation of carboxyl esterase” value was “will inactivate the enzyme”. Consider `CC(C)Cc1ccc(C(C)C(=O)O)cc1` (stereo not drawn) [ibuprofen, reference compound], for which the “inactivation of carboxyl esterase” value at carboxyl esterase [1] is listed as “inactivate the enzyme”. The same measure, in the same setting: in the case of `Oc1ccccc1` [phenol] it was “inactivate the enzyme”.
